In experiment [1] the target is T1, Epidermal growth factor receptor (Homo sapiens, UniProt P00533). Kind of experiment: (§1) Inhibition of EGF Receptor autophosphorylation in A431 cell lysate.
Experiment [2] addresses T1, Epidermal growth factor receptor. Described as §1. This is another data set of the same source.
For experiment [3] the target is unchanged. Described as §1. The source holds these as a separate data set.
Experiment [4] addresses Platelet-derived growth factor receptor (Homo sapiens, UniProt P09619+P16234). Kind of experiment: Inhibition of human PDGFR kinase in intact NIHPDGFR cells. Type of experiment: cell-based.
Experiment [5] has as its target T2, Receptor tyrosine-protein kinase erbB-2 (Homo sapiens, UniProt P04626). Kind of experiment: Inhibition of HER2 kinase in intact CSH12 cells. Type of experiment: cell-based.
For experiment [6], the target named is T1, Epidermal growth factor receptor. The settings on record: a-431.
Description: Inhibition of EGF Receptor autophosphorylation in A431 cell lysate; Range = 10000-50000 nM
The target of experiment [7] is T2, Receptor tyrosine-protein kinase erbB-2. Kind of experiment: Inhibition of HER2 kinase in intact CSH12 cells; Range = 25-50 nM. Type of experiment: cell-based.

The source of these data is ChEMBL document CHEMBL1141151, “High-affinity epidermal growth factor receptor (EGFR) irreversible inhibitors with diminished chemical reactivities as positron emission tomography (PET)-imaging agent candidates of EGFR overexpressing tumors” (J Med Chem, 2005).

Usually IC50 stands for the midpoint of a concentration-inhibition curve. Low values mean inhibition by little substance, high ones a need for much substance.

SMILES strings stand for the structures.

T1 sequence (P00533 whole entry): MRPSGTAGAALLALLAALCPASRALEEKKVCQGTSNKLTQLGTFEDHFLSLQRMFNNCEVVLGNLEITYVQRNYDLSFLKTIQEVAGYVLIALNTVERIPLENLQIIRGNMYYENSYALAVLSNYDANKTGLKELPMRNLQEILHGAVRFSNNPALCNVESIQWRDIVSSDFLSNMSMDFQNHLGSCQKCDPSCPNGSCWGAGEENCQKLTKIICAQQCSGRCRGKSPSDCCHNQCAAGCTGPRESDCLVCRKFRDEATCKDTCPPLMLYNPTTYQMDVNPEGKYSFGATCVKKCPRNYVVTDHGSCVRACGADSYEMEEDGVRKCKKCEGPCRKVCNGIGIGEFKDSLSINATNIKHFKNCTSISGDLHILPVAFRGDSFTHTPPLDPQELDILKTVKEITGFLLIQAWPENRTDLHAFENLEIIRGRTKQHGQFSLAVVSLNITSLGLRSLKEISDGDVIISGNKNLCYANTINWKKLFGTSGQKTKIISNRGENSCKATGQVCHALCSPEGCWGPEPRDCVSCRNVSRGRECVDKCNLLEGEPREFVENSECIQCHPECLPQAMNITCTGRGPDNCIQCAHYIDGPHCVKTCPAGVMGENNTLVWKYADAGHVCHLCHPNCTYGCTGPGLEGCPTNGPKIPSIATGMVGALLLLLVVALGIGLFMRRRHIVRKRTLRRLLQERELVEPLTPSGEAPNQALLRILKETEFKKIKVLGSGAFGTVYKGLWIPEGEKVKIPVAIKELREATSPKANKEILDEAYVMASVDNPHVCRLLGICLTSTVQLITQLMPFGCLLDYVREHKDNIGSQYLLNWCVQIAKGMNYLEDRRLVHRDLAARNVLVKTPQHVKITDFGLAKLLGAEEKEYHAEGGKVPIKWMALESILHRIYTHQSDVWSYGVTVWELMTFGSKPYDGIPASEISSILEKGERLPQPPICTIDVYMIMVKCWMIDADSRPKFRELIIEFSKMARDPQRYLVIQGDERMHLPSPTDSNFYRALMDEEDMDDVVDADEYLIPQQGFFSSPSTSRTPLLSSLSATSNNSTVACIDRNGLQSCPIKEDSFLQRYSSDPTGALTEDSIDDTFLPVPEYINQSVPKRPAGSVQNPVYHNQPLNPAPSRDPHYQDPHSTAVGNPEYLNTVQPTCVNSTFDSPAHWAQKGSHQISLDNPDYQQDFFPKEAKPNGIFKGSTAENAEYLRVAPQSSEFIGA
T2 sequence (P04626 whole entry): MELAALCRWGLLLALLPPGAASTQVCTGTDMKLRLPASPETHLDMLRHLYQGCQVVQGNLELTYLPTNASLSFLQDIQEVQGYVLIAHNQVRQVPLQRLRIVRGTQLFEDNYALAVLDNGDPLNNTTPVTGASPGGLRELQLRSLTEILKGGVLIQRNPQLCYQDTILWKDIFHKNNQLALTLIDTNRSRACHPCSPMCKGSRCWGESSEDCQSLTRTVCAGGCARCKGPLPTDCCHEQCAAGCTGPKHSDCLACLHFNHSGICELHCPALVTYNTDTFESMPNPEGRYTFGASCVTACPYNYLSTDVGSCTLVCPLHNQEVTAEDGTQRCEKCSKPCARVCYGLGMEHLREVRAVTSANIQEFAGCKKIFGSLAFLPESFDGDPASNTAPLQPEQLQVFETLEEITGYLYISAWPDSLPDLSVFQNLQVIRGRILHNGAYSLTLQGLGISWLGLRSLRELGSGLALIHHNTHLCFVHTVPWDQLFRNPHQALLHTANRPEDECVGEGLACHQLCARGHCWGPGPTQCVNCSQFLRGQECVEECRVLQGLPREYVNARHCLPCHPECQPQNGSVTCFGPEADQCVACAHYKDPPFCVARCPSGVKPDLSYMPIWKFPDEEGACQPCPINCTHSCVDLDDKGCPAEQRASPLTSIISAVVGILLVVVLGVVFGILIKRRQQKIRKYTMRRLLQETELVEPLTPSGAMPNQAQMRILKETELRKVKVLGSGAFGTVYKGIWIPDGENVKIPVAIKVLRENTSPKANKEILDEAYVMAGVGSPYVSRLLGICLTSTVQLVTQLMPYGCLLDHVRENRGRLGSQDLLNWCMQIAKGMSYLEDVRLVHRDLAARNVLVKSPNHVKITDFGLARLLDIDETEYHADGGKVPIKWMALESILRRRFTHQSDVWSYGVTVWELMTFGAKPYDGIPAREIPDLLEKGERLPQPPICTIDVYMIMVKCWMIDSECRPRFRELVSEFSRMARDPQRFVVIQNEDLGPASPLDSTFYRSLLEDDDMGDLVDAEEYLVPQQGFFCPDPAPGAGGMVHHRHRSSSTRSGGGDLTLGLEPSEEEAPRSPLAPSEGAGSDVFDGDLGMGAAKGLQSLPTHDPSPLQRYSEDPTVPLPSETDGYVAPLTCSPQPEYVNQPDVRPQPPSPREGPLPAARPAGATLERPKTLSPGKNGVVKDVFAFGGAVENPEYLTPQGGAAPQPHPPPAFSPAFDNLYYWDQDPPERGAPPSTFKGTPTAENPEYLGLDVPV

For the compound `CN(C)C/C=C/C(=O)Nc1ccc2ncnc(Nc3cccc(I)c3)c2c1`, the IC50 in experiment [1] is under 5 nM; in experiment [2], 0.94 nM; in experiment [3], under 5 nM.

For `CN(C)C/C=C/C(=O)Nc1ccc2ncnc(Nc3cc(Cl)c(Cl)cc3F)c2c1`, the IC50 in experiment [4] was over 1000 nM.

In the case of `COCC(=O)Nc1ccc2ncnc(Nc3cccc(I)c3)c2c1`, the results for the IC50 in experiment [2] and in experiment [3] were 150 nM and 50000 nM, respectively.

For the compound `COCC(=O)Nc1ccc2ncnc(Nc3cc(Cl)c(Cl)cc3F)c2c1`, the IC50 was over 500 nM in experiment [5], over 1000 nM in experiment [4], 252 nM in experiment [2] and 50 µM in experiment [6].

For `O=C(CCl)Nc1ccc2ncnc(Nc3cc(Cl)c(Cl)cc3F)c2c1`, the IC50 in experiment [4] was over 1000 nM; in experiment [2], 0.07 nM; in experiment [7], 50 nM.

In the case of `C=CC(=O)Nc1cc2c(Nc3cccc(Br)c3)ncnc2cc1N1CCN(C)CC1`, the IC50 in experiment [3] is over 500 nM.

Regarding `C=CC(=O)Nc1cc2c(Nc3cc(Cl)c(Cl)cc3F)ncnc2cc1N1CCN(C)CC1`, the IC50 in experiment [1] was 250 nM; in experiment [2] it was 6000 nM; in experiment [3], over 500 nM.

Consider `COc1cc2ncnc(Nc3cc(Cl)c(Cl)cc3F)c2cc1OC`, for which, in experiment [2], the IC50 came out at 0.208 nM.
